We go through 28 compounds from US20210269451A1, “PYRIDINYL HETEROCYCLYL COMPOUNDS FOR THE TREATMENT OF AUTOIMMUNE DISEASE” (Hoffmann-La Roche Inc., priority 2018, published 2021).

Each structure is given as a SMILES string. A value given as a limit tells only on which side of the number the result lay.

The target of data set [1] is T1, hTLR9 (Homo sapiens, UniProt Q9NR96).
T1 sequence (Q9NR96 26-1032): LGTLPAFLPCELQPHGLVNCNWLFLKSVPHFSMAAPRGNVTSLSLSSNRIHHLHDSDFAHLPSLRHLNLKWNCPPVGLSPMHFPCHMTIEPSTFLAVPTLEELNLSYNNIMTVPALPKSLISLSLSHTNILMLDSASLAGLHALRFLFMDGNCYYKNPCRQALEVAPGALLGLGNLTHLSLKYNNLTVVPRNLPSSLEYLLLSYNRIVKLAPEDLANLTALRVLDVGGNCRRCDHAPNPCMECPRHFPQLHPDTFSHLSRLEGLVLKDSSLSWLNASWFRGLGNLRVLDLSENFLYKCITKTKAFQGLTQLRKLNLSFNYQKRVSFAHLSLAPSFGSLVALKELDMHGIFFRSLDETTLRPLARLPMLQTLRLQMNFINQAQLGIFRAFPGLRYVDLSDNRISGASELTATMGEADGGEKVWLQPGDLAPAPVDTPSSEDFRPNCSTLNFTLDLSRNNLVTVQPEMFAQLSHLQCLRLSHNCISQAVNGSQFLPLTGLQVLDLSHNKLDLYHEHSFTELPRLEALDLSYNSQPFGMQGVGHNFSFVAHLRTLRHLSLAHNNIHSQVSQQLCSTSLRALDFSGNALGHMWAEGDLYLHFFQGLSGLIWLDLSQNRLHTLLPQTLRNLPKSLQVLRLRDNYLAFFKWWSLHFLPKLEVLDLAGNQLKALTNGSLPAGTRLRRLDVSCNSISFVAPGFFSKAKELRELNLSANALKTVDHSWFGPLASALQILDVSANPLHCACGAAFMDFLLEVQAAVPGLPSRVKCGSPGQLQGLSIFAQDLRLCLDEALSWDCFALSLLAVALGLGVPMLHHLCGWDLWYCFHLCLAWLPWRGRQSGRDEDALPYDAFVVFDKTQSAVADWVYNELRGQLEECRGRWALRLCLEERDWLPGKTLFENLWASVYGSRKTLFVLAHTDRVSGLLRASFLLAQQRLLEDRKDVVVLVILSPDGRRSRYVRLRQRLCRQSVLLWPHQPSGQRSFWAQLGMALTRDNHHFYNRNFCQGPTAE
The data set is described as follows: HEK293-Blue-hTLR-9 cells assay. The format is cell-based. On the set-up: host or cells: HEK293-Blue-hTLR-9 (HEK293). The conditions noted are these: HEK293-Blue-hTLR9 cells, ODN2006 stimulation, 20 hrs, SEAP reporter; read-out: HEK/hTLR9 IC50. The protocol:
The following tests were carried out in order to determine the activity of the compounds of formula (I) and (Ia) in HEK293-Blue-hTLR-7/8/9 cells assay.
HEK293-Blue-hTLR-9 cells assay:
A stable HEK293-Blue-hTLR-9 cell line was purchased from InvivoGen (Cat. #: hkb-htlr9, San Diego, Calif., USA). These cells were originally designed for studying the stimulation of human TLR9 by monitoring the activation of NE-KB. A SEAP (secreted embryonic alkaline phosphatase) reporter gene was placed under the control of the IFN-β minimal promoter fused to five NE-κB and AP-1-binding sites. The SEAP was induced by activating NE-κB and AP-1 via stimulating HEK-Blue hTLR9 cells with TLR9 ligands. Therefore the reporter expression was declined by TLR9 antagonist under the stimulation of a ligand, such as ODN2006 (Cat. #: tlrl-2006-1, Invivogen, San Diego, Calif., USA), for incubation of 20 hrs. The cell culture supernatant SEAP reporter activity was determined using QUANTI-Blue™ kit (Cat. #: rep-qb1, Invivogen, San Diego, Calif., USA) at a wavelength of 640 nm, a detection medium that turns purple or blue in the presence of alkaline phosphatase.
HEK293-Blue-hTLR9 cells were incubated at a density of 250,000˜450,000 cells/mL in a volume of 170 μL in a 96-well plate in Dulbecco's Modified Eagle's medium (DMEM) containing 4.5 g/L glucose, 50 U/mL penicillin, […], […], 2 mM L-glutamine, 10% (v/v) heat-inactivated fetal bovine serum with addition of 20 μL test compound in a serial dilution in the presence of final DMSO at 1% and 10 μL of 20 uM ODN2006 in above DMEM, perform incubation under 37° C. in a CO2 incubator for 20 hrs. Then 20 μL of the supernatant from each well was incubated with 180 μL Quanti-blue substrate solution at 37° C. for 2 h and the absorbance was read at 620˜655 nm using a spectrophotometer. The signaling pathway that TLR9 activation leads to downstream NE-κB activation has been widely accepted, and therefore similar reporter assay was modified for evaluating TLR9 antagonist.

A short description of data set [2]: Human microsome stability assay. The class given is in vitro ADME. The following applies: 1 μM test compound, 0.5 mg/mL liver microsomal protein, 37° C. As to the method:
Human microsome stability assay
The human microsomal stability assay is used for early assessment of metabolic stability of a test compound in human liver microsomes.
Human liver microsomes (Cat.NO.: 452117, Corning, USA;Cat.NO.:H2610, Xenotech, USA) were preincubated with test compound for 10 minutes at 37° C. in 100 mM potassium phosphate buffer, pH 7.4. The reactions were initiated by adding NADPH regenerating system. The final incubation mixtures contained 1 μM test compound, 0.5 mg/mL liver microsomal protein, 1 mM MgCl2, 1 mM NADP, 1 unit/mL isocitric dehydrogenase and 6 mM isocitric acid in 100 mM potassium phosphate buffer, pH 7.4. After incubation times of 0, 3, 6, 9, 15 and 30 minutes at 37° C., 300 μL of cold acetonitrile (including internal standard) was added to 100 μL incubation mixture to terminate the reaction. Following precipitation and centrifugation, the amount of compound remaining in the samples were determined by LC-MS/MS. Controls of no NADPH regenerating system at zero and 30 minutes were also prepared and analyzed.

`Cc1cc(N2CCC[C@@H](N(C)C[C@H]3CN(c4ccc(C#N)c5ncccc45)C[C@@H](C)O3)C2)cc(CO)n1` [Example 35]: in data set [1], the IC50 amounted to 34 nM.
Consider `Cc1cc(N2CC3(CN(C[C@H]4CN(c5ccc(C#N)c6ncccc56)C[C@@H](C)O4)C3)C2)cc(CO)n1` [Example 1, 5-[(2S,6R)-2-[[2-[2-(hydroxymethyl)-6-methyl-4-pyridyl]-2,6-diazaspiro[3.3]heptan-6-yl]methyl]-6-methyl-morpholin-4-yl]quinoline-8-carbonitrile], for which, in data set [2], the “Clearance of Human microsome” value is 6.35 mL/min/kg. In addition, the IC50 in data set [1] was determined as 34 nM.
With `Cc1cc(N2CCN(C[C@H]3CN(c4ccc(C#N)c5ncccc45)C[C@@H](C)O3)[C@H](C)C2)cc(CO)n1` [Example 4B], the IC50 in data set [1] amounted to 145 nM.
Same read-out and setting: for `Cc1cc(N2CCOC3CN(CC4CN(c5ccc(C#N)c6ncccc56)CC(C)O4)CC32)cc(C)n1` (single isomer, unassigned) [Example 17B] the value was less than 32 nM; for `Cc1cc(N2CCC23CN(C[C@H]2CN(c4ccc(C#N)c5ncccc45)C[C@@H](C)O2)C3)cc(CO)n1` [Example 12], 49 nM.
Regarding `Cc1cc(N2CC(NC[C@H]3CN(c4ccc(C#N)c5ncccc45)C[C@@H](C)O3)CC(F)(F)C2)cc(CO)n1` (some centres unmarked) [Example 36], the IC50 in data set [1] was 215 nM.
As to `Cc1cc(N2CCOC3(CN(C[C@H]4CN(c5ccc(C#N)c6ncccc56)C[C@@H](C)O4)C3)C2)ccn1` [Example 16], the IC50 in data set [1] came to 38 nM.
Regarding `Cc1cc(N2CC[C@H](NC[C@H]3CN(c4ccc(C#N)c5ncccc45)C[C@@H](C)O3)C2)cc(CO)n1` [Example 29], the IC50 in data set [1] is 59 nM.
Take `CNc1cc(N2CCN(C[C@H]3CN(c4ccc(C#N)c5ncccc45)C[C@@H](C)O3)CC2)cc(C)n1` [Example 42, 5-[(2R,6S)-2-methyl-6-[[4-[2-methyl-6-(methylamino)-4-pyridyl]piperazin-1-yl]methyl]morpholin-4-yl]quinoline-8-carbonitrile]: in data set [1], the IC50 is less than 32 nM.
For the compound `C[C@@H]1CN(c2ccc(C#N)c3ncccc23)C[C@H](CN[C@@H]2CCCN(c3ccnc(N)c3)C2)O1` [Example 21, 5-[(2S,6R)-2-[[[(3R)-1-(2-amino-4-pyridyl)-3-piperidyl]amino]methyl]-6-methyl-morpholin-4-yl]quinoline-8-carbonitrile], in data set [1], the IC50 was less than 32 nM.
On to `Cc1cc(N2CC[C@H](F)[C@H](NC[C@H]3CN(c4ccc(C#N)c5ncccc45)C[C@@H](C)O3)C2)cc(CO)n1` [Example 33], for which the IC50 in data set [1] turned out to be 122 nM.
For `Cc1cc(N2C[C@H]3CN(C[C@H]4CN(c5ccc(C#N)c6ncccc56)C[C@@H](C)O4)C[C@H]3C2)cc(CO)n1` [Example 10], the IC50 in data set [1] was less than 32 nM.
As to `C[C@@H]1CN(c2ccc(C#N)c3ncccc23)C[C@H](CN[C@H]2CCCN(c3ccnc(N)c3)C2)O1` [Example 22], the IC50 in data set [1] stood at 34 nM.
In the case of `C[C@@H]1CN(c2ccc(C#N)c3ncccc23)C[C@H](CN2CC3(C2)CN(c2ccnc(C4CC4)c2)CCO3)O1` [Example 3, 5-[(2S,6R)-2-[[8-(2-cyclopropyl-4-pyridyl)-5-oxa-2,8-diazaspiro[3.5]nonan-2-yl]methyl]-6-methyl-morpholin-4-yl]quinoline-8-carbonitrile], the IC50 in data set [1] worked out at 48 nM.
Turning to `Cc1cc(N2CCOC3(CN(C[C@H]4CN(c5ccc(C#N)c6ncccc56)C[C@@H](C)O4)C3)C2)cc(C)n1` [Example 14], in data set [1], the IC50 is less than 32 nM.
The same measure, in the same setting: for `Cc1cc(N2CC[C@@H](F)[C@H](NC[C@H]3CN(c4ccc(C#N)c5ncccc45)C[C@@H](C)O3)C2)cc(CO)n1` [Example 34] the value was 155 nM; for `Cc1cc(N2CCOC3CN(CC4CN(c5ccc(C#N)c6ncccc56)CC(C)O4)CC32)cc(C)n1` (single isomer, unassigned) [Example 17A], 154 nM; for `Cc1cc(N2CCC(NC[C@H]3CN(c4ccc(C#N)c5ncccc45)C[C@@H](C)O3)CC2)cc(CO)n1` [Example 23], less than 32 nM.
Take `Cc1cc(N2CCC23CN(C[C@H]2CN(c4ccc(C#N)c5ncccc45)C[C@@H](C)O2)C3)ccn1` [Example 15]: the IC50 in data set [1] is 71 nM.
The same measure, in the same setting: the value for `Cc1cc(N2CCC[C@H](N(C)C[C@H]3CN(c4ccc(C#N)c5ncccc45)C[C@@H](C)O3)C2)cc(CO)n1` [Example 38] was 39 nM; that for `Cc1cc(N2CCC[C@@H](NC[C@H]3CN(c4ccc(C#N)c5ncccc45)C[C@@H](C)O3)C2)cc(CO)n1` [Example 24] was less than 32 nM.
With `C[C@@H]1CN(c2ccc(C#N)c3ncccc23)C[C@H](CN2CCN(c3cc(N)nc(CO)c3)CC2)O1` [Example 45, 5-[(2S,6R)-2-[[4-[2-amino-6-(hydroxymethyl)-4-pyridyl]piperazin-1-yl]methyl]-6-methyl-morpholin-4-yl]quinoline-8-carbonitrile], in data set [1], the IC50 stood at 91 nM.
As for `Cc1cc(C2CCN(C[C@H]3CN(c4ccc(C#N)c5ncccc45)C[C@@H](C)O3)CC2)cc(N)n1` [Example 43, 5-[(2S,6R)-2-[[4-(2-amino-6-methyl-4-pyridyl)-1-piperidyl]methyl]-6-methyl-morpholin-4-yl]quinoline-8-carbonitrile], the IC50 in data set [1] was found to be 54 nM.
Still for that read-out and setting: the value for `Cc1cc(N2CCC[C@H](NC[C@H]3CN(c4ccc(C#N)c5ncccc45)C[C@@H](C)O3)C2)cc(CO)n1` [Example 25] was less than 32 nM; that for `C[C@@H]1CN(c2ccc(C#N)c3ncccc23)C[C@H](CN2CC3(C2)CN(c2ccnc(CO)c2)CCO3)O1` [Example 51] was 35 nM.
With `C[C@@H]1CN(c2ccc(C#N)c3ncccc23)C[C@H](CN2CCN(c3ccnc(N)c3)CC2)O1` [Example 19, 5-[(2S,6R)-2-[[4-(2-amino-4-pyridyl)piperazin-1-yl]methyl]-6-methyl-morpholin-4-yl]quinoline-8-carbonitrile], the IC50 in data set [1] stood at 62 nM.
Take `Cc1cc(N(C)C2CN(C[C@H]3CN(c4ccc(C#N)c5ncccc45)C[C@@H](C)O3)C2)cc(C)n1` [Example 11]: in data set [1], the IC50 was found to be 40 nM.
As to `Cc1cc(N2CCC23CN(C[C@H]2CN(c4ccc(C#N)c5ncccc45)C[C@@H](C)O2)C3)cc(C)n1` [Example 8], the IC50 in data set [1] is less than 32 nM.
